Among the data in patent US9637496B2, “Substituted 7-azabicycles and their use as orexin receptor modulators” (priority 2013, dated 2017) are Ki values, retold here.

The target of one experiment is human orexin 2 receptor (Homo sapiens (Human), UniProt O43614). Kind of experiment: Human orexin 2 receptor radioligand binding ([3H]-EMPA competition, HEK293 membranes).
The target of the next experiment is human orexin 1 receptor (Homo sapiens (Human), UniProt O43613). Kind of experiment: Human orexin 1 receptor radioligand binding (competitive binding, CHO membranes).
Another experiment addresses rat orexin 1 receptor (Rattus norvegicus (Rat), UniProt P56718). Briefly: Rat orexin 1 receptor radioligand binding (competitive binding, HEK293 membranes).
Where [1] appears, read: human orexin 2 receptor, Table 2, averages from between 2-20 runs, read-out: hOX2 Ki.
Setting [2] is: human orexin 1 receptor, Table 2, averages from between 2-20 runs, read-out: hOX1 Ki.
Where [3] appears, read: rat orexin 1 receptor, Table 2, averages from between 2-20 runs, read-out: rOX1 Ki.
Setting [4] is: Table 2, further testing, averages from 2-20 runs, read-out: hOX2 Ki.
[5] abbreviates: Table 2, further testing, averages from 2-20 runs, read-out: hOX1 Ki.
Where [6] appears, read: Table 2, further testing, averages from 2-20 runs, read-out: rOX1 Ki.

The term Ki denotes the dissociation constant of the complex between target and ligand, obtained from inhibition or displacement.

Like-named read-outs stand apart in the source and are kept apart here.

Chain of human orexin 2 receptor (O43614 whole entry): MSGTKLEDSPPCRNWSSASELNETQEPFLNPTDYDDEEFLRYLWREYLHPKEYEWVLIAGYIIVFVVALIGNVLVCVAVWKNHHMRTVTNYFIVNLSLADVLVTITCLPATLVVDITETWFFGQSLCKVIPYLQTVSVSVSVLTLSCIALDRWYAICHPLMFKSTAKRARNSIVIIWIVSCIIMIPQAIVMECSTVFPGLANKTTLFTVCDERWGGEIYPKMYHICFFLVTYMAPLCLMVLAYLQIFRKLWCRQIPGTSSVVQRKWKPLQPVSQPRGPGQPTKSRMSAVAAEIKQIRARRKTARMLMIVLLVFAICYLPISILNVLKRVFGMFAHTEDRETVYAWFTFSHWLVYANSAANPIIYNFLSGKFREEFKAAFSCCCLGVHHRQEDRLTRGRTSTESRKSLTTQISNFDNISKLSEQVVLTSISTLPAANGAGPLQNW
Chain of human orexin 1 receptor (O43613 whole entry): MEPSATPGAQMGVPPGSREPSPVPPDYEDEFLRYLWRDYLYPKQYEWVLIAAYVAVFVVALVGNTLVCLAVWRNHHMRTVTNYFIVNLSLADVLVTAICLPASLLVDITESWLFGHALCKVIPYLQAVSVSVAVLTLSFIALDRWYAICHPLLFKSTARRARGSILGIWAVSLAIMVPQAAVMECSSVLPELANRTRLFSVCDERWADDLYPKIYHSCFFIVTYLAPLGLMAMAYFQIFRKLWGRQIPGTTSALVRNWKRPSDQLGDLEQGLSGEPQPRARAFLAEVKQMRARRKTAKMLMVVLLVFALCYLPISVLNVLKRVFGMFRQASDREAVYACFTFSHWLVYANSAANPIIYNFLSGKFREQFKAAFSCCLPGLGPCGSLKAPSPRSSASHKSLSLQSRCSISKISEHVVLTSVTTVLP
Chain of rat orexin 1 receptor (P56718 whole entry): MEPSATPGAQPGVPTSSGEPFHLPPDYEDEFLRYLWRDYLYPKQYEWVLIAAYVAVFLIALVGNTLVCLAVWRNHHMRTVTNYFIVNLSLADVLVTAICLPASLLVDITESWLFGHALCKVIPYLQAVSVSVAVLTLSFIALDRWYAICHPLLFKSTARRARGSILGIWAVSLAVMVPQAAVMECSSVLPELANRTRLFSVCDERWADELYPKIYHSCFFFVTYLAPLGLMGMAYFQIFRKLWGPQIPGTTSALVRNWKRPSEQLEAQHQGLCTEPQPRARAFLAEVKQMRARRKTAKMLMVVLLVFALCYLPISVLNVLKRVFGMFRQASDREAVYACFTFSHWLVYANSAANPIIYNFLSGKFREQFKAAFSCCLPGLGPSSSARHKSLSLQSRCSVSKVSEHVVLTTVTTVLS

With `O=C(c1ccc(F)cc1-c1ncccn1)N1C2CCC1C(Oc1ccc(C(F)(F)F)cn1)C2` (racemic) [Example 430], the inhibition constant Ki at human orexin 2 receptor (setting [1]) is more than 10 µM; on human orexin 1 receptor (setting [2]), 0.3 µM; on rat orexin 1 receptor (setting [3]) it was 0.245 µM.

Turning to `O=C(c1ccccc1-c1ncccn1)N1[C@@H]2CC[C@H]1[C@H](Nc1ncc(C(F)(F)F)cc1Cl)C2` [Example 386, ((1S,2R,4R)-2-((3-chloro-5-(trifluoromethyl)pyridin-2-yl)amino)-7-azabicyclo[2.2.1]heptan-7-yl)(2-(pyrimidin-2-yl)phenyl)methanone], the results for the Ki at human orexin 2 receptor (setting [1]), on human orexin 1 receptor (setting [2]) and on rat orexin 1 receptor (setting [3]) were 0.499 µM, 0.029 µM and 0.02 µM, respectively.

In the case of `O=C(c1cc(F)ccc1-c1ncco1)N1[C@@H]2CC[C@H]1[C@H](Nc1cnc(C(F)(F)F)cn1)C2` [Example 410, (5-fluoro-2-(oxazol-2-yl)phenyl)((1S,2R,4R)-2-((5-(trifluoromethyl)pyrazin-2-yl)amino)-7-azabicyclo[2.2.1]heptan-7-yl)methanone], the inhibitory constant (Ki) at human orexin 2 receptor (setting [1]) was determined as 1 µM; on human orexin 1 receptor (read-out: hOX1 Ki) it was 0.09 µM; on rat orexin 1 receptor (read-out: rOX1 Ki), 0.067 µM.

`O=C(c1c(F)cccc1-c1ncccn1)N1C2CCC1C(Oc1ccc(C(F)(F)F)cn1)C2` (racemic) [Example 431]: the Ki on human orexin 2 receptor worked out at 5.1 µM; on human orexin 1 receptor, 0.18 µM; at rat orexin 1 receptor, 0.143 µM.

On to `O=C(c1cccc(F)c1-n1nccn1)N1[C@@H]2CC[C@H]1[C@H](Nc1ncc(C(F)(F)F)cc1F)C2` [Example 449, (3-fluoro-2-(2H-1,2,3-triazol-2-yl)phenyl)((1S,2R,4R)-2-((3-fluoro-5-(trifluoromethyl)pyridin-2-yl)amino)-7-azabicyclo[2.2.1]heptan-7-yl)methanone], for which the values for the Ki at human orexin 2 receptor (setting [4]), at human orexin 1 receptor (setting [5]) and on rat orexin 1 receptor (setting [6]) were 0.873 µM, 0.041 µM and 0.034 µM, respectively.

Take `O=C(c1ccccc1-c1ncc(F)cn1)N1[C@@H]2CC[C@H]1[C@H](Nc1cnc(C(F)(F)F)cn1)C2` [Example 397, (2-(5-fluoropyrimidin-2-yl)phenyl)((1S,2R,4R)-2-((5-(trifluoromethyl)pyrazin-2-yl)amino)-7-azabicyclo[2.2.1]heptan-7-yl)methanone]: the values for the Ki at human orexin 2 receptor (setting [1]), on human orexin 1 receptor (read-out: hOX1 Ki) and at rat orexin 1 receptor (read-out: rOX1 Ki) were 0.985 µM, 0.024 µM and 0.05 µM, respectively.

With `Cc1cnc(C(=O)N2[C@@H]3CC[C@H]2[C@H](Nc2cnc(C(F)(F)F)cn2)C3)c(-c2ncccn2)c1` [Example 405, (5-methyl-3-(pyrimidin-2-yl)pyridin-2-yl)((1S,2R,4R)-2-((5-(trifluoromethyl)pyrazin-2-yl)amino)-7-azabicyclo[2.2.1]heptan-7-yl)methanone], the Ki on human orexin 2 receptor (read-out: hOX2 Ki) was more than 10 µM; at human orexin 1 receptor (read-out: hOX1 Ki), 0.059 µM; on rat orexin 1 receptor (read-out: rOX1 Ki), 0.053 µM.

Take `O=C(c1ccc(F)cc1-c1ncccn1)N1[C@@H]2CC[C@H]1[C@H](Nc1ncc(C(F)(F)F)cn1)C2` [Example 414, (4-fluoro-2-(pyrimidin-2-yl)phenyl)((1S,2R,4R)-2-((5-(trifluoromethyl)pyrimidin-2-yl)amino)-7-azabicyclo[2.2.1]heptan-7-yl)methanone]: the Ki on human orexin 2 receptor (setting [1]) came to 5.8 µM; on human orexin 1 receptor (setting [2]) it was 0.081 µM; on rat orexin 1 receptor (setting [3]) it was 0.16 µM.

As to `O=C(c1cccc(F)c1-n1nccn1)N1C2CCC1C(Oc1ccc(C(F)(F)F)cn1)C2` (racemic) [Example 423], the Ki came to 4.87 µM on human orexin 2 receptor, 0.174 µM at human orexin 1 receptor and 0.202 µM at rat orexin 1 receptor.

In the case of `Cc1cccc(C(=O)N2C3CCC2C(Oc2cnc(C(F)(F)F)cn2)C3)c1-n1nccn1` (racemic) [Example 444], the inhibition constant (Ki) on human orexin 2 receptor amounted to 4.2 µM; on human orexin 1 receptor, 0.237 µM; at rat orexin 1 receptor, 0.165 µM.

Take `O=C(c1ncccc1-c1ncccn1)N1[C@@H]2CC[C@H]1[C@H](Nc1ncc(C(F)(F)F)cc1Cl)C2` [Example 387, ((1S,2R,4R)-2-((3-chloro-5-(trifluoromethyl)pyridin-2-yl)amino)-7-azabicyclo[2.2.1]heptan-7-yl)(3-(pyrimidin-2-yl)pyridin-2-yl)methanone]: the Ki at human orexin 2 receptor (setting [1]) turned out to be 1.1 µM; at human orexin 1 receptor (setting [2]) it was 0.033 µM; at rat orexin 1 receptor (setting [3]), 0.04 µM.

As to `N#Cc1ccc(N[C@@H]2C[C@H]3CC[C@@H]2N3C(=O)c2cccc(F)c2-n2nccn2)nc1` [Example 390, 6-(((1S,2R,4R)-7-(3-fluoro-2-(2H-1,2,3-triazol-2-yl)benzoyl)-7-azabicyclo[2.2.1]heptan-2-yl)amino)nicotinonitrile], the Ki on human orexin 2 receptor (setting [1]) is more than 10 µM; on human orexin 1 receptor (setting [2]), 1.4 µM; at rat orexin 1 receptor (setting [3]), 1.5 µM.

For the compound `O=C(c1ncccc1-c1ncccn1)N1[C@@H]2CC[C@H]1[C@H](Nc1ccc(C(F)(F)F)cn1)C2` [Example 381, (3-(pyrimidin-2-yl)pyridin-2-yl)((1S,2R,4R)-2-((5-(trifluoromethyl)pyridin-2-yl)amino)-7-azabicyclo[2.2.1]heptan-7-yl)methanone], the figures for the Ki at human orexin 2 receptor (setting [1]), at human orexin 1 receptor (read-out: hOX1 Ki) and at rat orexin 1 receptor (read-out: rOX1 Ki) were 0.79 µM, 0.025 µM and 0.025 µM, respectively.

In the case of `Cc1cccc(C(=O)N2C3CCC2C(Oc2ccc(C(F)(F)F)cn2)C3)c1-c1ncco1` (racemic) [Example 435], the Ki on human orexin 2 receptor was 0.52 µM; at human orexin 1 receptor it was 0.029 µM; on rat orexin 1 receptor, 0.05 µM.

With `O=C(c1cccc(F)c1-n1nccn1)N1[C@@H]2CC[C@H]1[C@H](Nc1cnc(Br)cn1)C2` [Example 311, ((1S,2R,4R)-2-((5-bromopyrazin-2-yl)amino)-7-azabicyclo[2.2.1]heptan-7-yl)(3-fluoro-2-(2H-1,2,3-triazol-2-yl)phenyl)methanone], the Ki on human orexin 2 receptor (setting [1]) turned out to be 1 µM; at human orexin 1 receptor (read-out: hOX1 Ki) it was 0.021 µM; at rat orexin 1 receptor (read-out: rOX1 Ki), 0.017 µM.

In the case of `N#Cc1ccc(N[C@@H]2C[C@H]3CC[C@@H]2N3C(=O)c2cccc(F)c2-c2ncccn2)nc1` [Example 392, 6-(((1S,2R,4R)-7-(3-fluoro-2-(pyrimidin-2-yl)benzoyl)-7-azabicyclo[2.2.1]heptan-2-yl)amino)nicotinonitrile], the Ki on human orexin 2 receptor (setting [1]) is more than 10 µM; on human orexin 1 receptor (setting [2]), 1.4 µM; on rat orexin 1 receptor (setting [3]) it was 1 µM.

In the case of `Cc1cccc(C(=O)N2C3CCC2C(Nc2cnc(Br)cn2)C3)c1-c1ncco1` [Example 308, ((1S,2R,4R)-2-((5-bromopyrazin-2-yl)amino)-7-azabicyclo[2.2.]heptan-7-yl)(3-methyl-2-(oxazol-2-yl)phenyl)methanone], the Ki on human orexin 2 receptor (setting [1]) was determined as 0.173 µM; at human orexin 1 receptor (setting [2]) it was 0.004 µM; at rat orexin 1 receptor (setting [3]), 0.006 µM.

On to `O=C(c1ncccc1-c1ncccn1)N1[C@@H]2CC[C@H]1[C@H](Nc1cnc(C(F)(F)F)cn1)C2` [Example 406, (3-(pyrimidin-2-yl)pyridin-2-yl)((1S,2R,4R)-2-((5-(trifluoromethyl)pyrazin-2-yl)amino)-7-azabicyclo[2.2.1]heptan-7-yl)methanone], for which the Ki on human orexin 2 receptor (setting [1]) turned out to be 0.972 µM; on human orexin 1 receptor (setting [2]) it was 0.044 µM; on rat orexin 1 receptor (setting [3]) it was 0.059 µM.

With `O=C(c1ccccc1-c1ncc(F)cn1)N1[C@@H]2CC[C@H]1[C@H](Nc1ncc(C(F)(F)F)cc1Cl)C2` [Example 385, ((1S,2R,4R)-2-((3-chloro-5-(trifluoromethyl)pyridin-2-yl)amino)-7-azabicyclo[2.2.1]heptan-7-yl)(2-(5-fluoropyrimidin-2-yl)phenyl)methanone], the Ki at human orexin 2 receptor (setting [1]) is 0.696 µM; on human orexin 1 receptor (read-out: hOX1 Ki), 0.044 µM; at rat orexin 1 receptor (read-out: rOX1 Ki), 0.037 µM.

Consider `O=C(c1ccccc1-c1ncc(F)cn1)N1[C@@H]2CC[C@H]1[C@H](Nc1ncc(C(F)(F)F)cc1F)C2` [Example 460, ((1S,2R,4R)-2-((3-fluoro-5-(trifluoromethyl)pyridin-2-yl)amino)-7-azabicyclo[2.2.1]heptan-7-yl)(2-(5-fluoropyrimidin-2-yl)phenyl)methanone], for which the figures for the Ki on human orexin 2 receptor (setting [4]), at human orexin 1 receptor (setting [5]) and on rat orexin 1 receptor (setting [6]) were 1.3 µM, 0.041 µM and 0.057 µM, respectively.

For `Cc1cnc(C(=O)N2[C@@H]3CC[C@H]2[C@H](Nc2ccc(C(F)(F)F)cn2)C3)c(-c2ncccn2)c1` [Example 380, (5-methyl-3-(pyrimidin-2-yl)pyridin-2-yl)((1S,2R,4R)-2-((5-(trifluoromethyl)pyridin-2-yl)amino)-7-azabicyclo[2.2.1]heptan-7-yl)methanone], the inhibition constant Ki on human orexin 2 receptor (setting [1]) is 8.5 µM; at human orexin 1 receptor (read-out: hOX1 Ki) it was 0.048 µM; at rat orexin 1 receptor (read-out: rOX1 Ki) it was 0.028 µM.

As for `Cc1cccc(C(=O)N2[C@@H]3CC[C@H]2[C@H](Nc2ncc(C(F)(F)F)cc2F)C3)c1-n1nccn1` [Example 450, ((1S,2R,4R)-2-((3-fluoro-5-(trifluoromethyl)pyridin-2-yl)amino)-7-azabicyclo[2.2.1]heptan-7-yl)(3-methyl-2-(2H-1,2,3-triazol-2-yl)phenyl)methanone], the figures for the Ki on human orexin 2 receptor (setting [4]), at human orexin 1 receptor (setting [5]) and at rat orexin 1 receptor (setting [6]) were 0.34 µM, 0.032 µM and 0.014 µM, respectively.

On to `O=C(c1ccccc1-c1ncccn1)N1[C@@H]2CC[C@H]1[C@H](Nc1ccc(C(F)(F)F)cn1)C2` [Example 373, (2-(pyrimidin-2-yl)phenyl)((1S,2R,4R)-2-((5-(trifluoromethyl)pyridin-2-yl)amino)-7-azabicyclo[2.2.1]heptan-7-yl)methanone], for which the Ki was 0.679 µM on human orexin 2 receptor (setting [1]), 0.036 µM on human orexin 1 receptor (read-out: hOX1 Ki) and 0.034 µM at rat orexin 1 receptor (read-out: rOX1 Ki).

With `O=C(c1ccccc1-n1nccn1)N1[C@@H]2CC[C@H]1[C@H](Nc1ncc(C(F)(F)F)cc1F)C2` [Example 448, (2-(2H-1,2,3-triazol-2-yl)phenyl)((1S,2R,4R)-2-((3-fluoro-5-(trifluoromethyl)pyridin-2-yl)amino)-7-azabicyclo[2.2.1]heptan-7-yl)methanone], the figures for the Ki at human orexin 2 receptor (setting [4]), on human orexin 1 receptor (setting [5]) and at rat orexin 1 receptor (setting [6]) were 0.666 µM, 0.033 µM and 0.041 µM, respectively.
